Paper PMC9005681, “Use of AD Informer Set compounds to explore validity of novel targets in Alzheimer's disease pathology” (Alzheimer's & Dementia : Translational Research & Clinical …, 2022)
Several values for one entry are separate records, joined by “and”; a condition that tells them apart may be missing. Identical values can stand only once.

Columns and labels:
Assay in all cases: PDSP GPCR panel primary binding assays at 10 μM
[1] = molecular target: T1, cloned human or rodent CNS receptors, channels, and transporters (PDSP panel) (Homo sapiens, UniProt P28335); conditions: primary assay
T1 construct: expressed in transfected cells
T1 sequence (P28335 33-458): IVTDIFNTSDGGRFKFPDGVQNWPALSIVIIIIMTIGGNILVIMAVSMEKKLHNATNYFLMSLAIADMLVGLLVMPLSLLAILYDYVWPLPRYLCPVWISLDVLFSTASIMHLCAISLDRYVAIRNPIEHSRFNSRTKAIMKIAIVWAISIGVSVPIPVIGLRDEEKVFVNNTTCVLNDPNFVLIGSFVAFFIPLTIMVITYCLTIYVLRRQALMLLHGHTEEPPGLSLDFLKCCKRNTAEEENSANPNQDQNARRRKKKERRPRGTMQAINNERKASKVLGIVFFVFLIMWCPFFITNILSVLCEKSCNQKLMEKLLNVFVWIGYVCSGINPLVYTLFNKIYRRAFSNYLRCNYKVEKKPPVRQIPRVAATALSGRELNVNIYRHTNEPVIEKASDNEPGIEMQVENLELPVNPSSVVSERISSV
Summary of the method: (§1)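 Secondary binding curves (11 points, triplicate) were run at targets where the 10 μM primary screen, done in quadruplicate, displaced over 50% of radio-labelled standard ligand on average. Primary screening covered 46–47 cloned human or rodent CNS targets; H3, PBR and GABAA were not followed up.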

[2] = molecular target: T2, cloned human or rodent CNS receptors, channels, and transporters (PDSP panel) (Homo sapiens, UniProt P08173); conditions: primary assay
T2 construct: expressed in transfected cells
T2 sequence (P08173 1-479): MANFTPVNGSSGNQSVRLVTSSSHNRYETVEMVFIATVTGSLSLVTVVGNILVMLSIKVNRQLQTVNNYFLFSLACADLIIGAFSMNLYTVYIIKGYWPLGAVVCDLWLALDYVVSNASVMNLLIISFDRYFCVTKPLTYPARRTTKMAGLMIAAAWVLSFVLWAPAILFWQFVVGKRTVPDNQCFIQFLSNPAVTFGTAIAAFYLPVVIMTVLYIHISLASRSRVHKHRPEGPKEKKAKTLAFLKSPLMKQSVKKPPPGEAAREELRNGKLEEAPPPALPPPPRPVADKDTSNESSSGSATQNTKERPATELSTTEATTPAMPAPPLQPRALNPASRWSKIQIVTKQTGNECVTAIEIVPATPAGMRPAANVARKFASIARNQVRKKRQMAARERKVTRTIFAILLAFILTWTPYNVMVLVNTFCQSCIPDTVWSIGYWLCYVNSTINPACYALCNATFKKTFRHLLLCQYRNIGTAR
Summary of the method: as §1

[3] = molecular target: T3, cloned human or rodent CNS receptors, channels, and transporters (PDSP panel) (Homo sapiens, UniProt Q01959); conditions: primary assay
T3 construct: expressed in transfected cells
Summary of the method: as §1

[4] = molecular target: T4, cloned human or rodent CNS receptors, channels, and transporters (PDSP panel) (Homo sapiens, UniProt P14416); conditions: primary assay
T4 construct: expressed in transfected cells
Summary of the method: as §1

[5] = molecular target: T5, cloned human or rodent CNS receptors, channels, and transporters (PDSP panel) (Homo sapiens, UniProt P18089); conditions: primary assay
T5 construct: expressed in transfected cells
T5 sequence (P18089 1-450): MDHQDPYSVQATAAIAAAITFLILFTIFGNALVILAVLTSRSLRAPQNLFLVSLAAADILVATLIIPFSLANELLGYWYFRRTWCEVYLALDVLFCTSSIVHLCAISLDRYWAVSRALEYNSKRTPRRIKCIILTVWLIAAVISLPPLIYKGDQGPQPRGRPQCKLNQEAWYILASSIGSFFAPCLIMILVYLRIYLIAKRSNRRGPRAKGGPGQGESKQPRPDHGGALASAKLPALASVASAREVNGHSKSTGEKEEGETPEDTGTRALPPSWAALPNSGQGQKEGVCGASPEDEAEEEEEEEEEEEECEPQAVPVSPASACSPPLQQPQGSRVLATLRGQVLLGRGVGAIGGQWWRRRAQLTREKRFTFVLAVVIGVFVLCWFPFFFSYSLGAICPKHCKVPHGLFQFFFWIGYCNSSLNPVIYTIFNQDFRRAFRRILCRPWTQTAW
Summary of the method: as §1

[6] = molecular target: T6, cloned human or rodent CNS receptors, channels, and transporters (PDSP panel) (Homo sapiens, UniProt P31645); conditions: primary assay
T6 construct: expressed in transfected cells
Summary of the method: as §1

[7] = molecular target: T7, cloned human or rodent CNS receptors, channels, and transporters (PDSP panel) (Homo sapiens, UniProt P47898); conditions: primary assay
T7 construct: expressed in transfected cells
Summary of the method: as §1

[8] = molecular target: T8, cloned human or rodent CNS receptors, channels, and transporters (PDSP panel) (Rattus norvegicus, UniProt P16257); conditions: primary assay; for Inhibition 1: replicate 1; for Inhibition 2: replicate 2; for Inhibition 3: replicate 3
T8 construct: expressed in transfected cells
Summary of the method: as §1

T4 sequence (P14416 whole entry): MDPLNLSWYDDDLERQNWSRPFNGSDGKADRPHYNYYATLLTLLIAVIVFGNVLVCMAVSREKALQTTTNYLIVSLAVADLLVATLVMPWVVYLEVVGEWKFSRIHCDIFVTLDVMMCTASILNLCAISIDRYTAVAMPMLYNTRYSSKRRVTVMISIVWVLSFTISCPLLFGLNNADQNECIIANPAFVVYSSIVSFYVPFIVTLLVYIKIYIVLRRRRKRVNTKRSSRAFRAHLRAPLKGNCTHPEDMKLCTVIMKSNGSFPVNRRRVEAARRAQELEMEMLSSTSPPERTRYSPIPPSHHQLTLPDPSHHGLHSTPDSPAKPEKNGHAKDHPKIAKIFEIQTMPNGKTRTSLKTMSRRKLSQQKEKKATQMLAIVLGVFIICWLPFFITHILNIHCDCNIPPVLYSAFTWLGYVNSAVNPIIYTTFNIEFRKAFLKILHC
T7 sequence (P47898 whole entry): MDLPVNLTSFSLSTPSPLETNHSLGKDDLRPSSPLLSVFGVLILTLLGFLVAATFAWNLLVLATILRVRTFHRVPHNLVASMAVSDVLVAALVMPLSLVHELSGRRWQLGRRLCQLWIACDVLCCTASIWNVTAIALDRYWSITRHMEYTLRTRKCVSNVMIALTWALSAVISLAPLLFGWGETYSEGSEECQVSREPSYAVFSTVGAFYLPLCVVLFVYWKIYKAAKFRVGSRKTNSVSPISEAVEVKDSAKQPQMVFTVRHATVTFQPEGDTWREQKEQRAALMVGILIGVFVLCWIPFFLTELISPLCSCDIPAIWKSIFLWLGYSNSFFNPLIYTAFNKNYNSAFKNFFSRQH
T6 sequence (P31645 whole entry): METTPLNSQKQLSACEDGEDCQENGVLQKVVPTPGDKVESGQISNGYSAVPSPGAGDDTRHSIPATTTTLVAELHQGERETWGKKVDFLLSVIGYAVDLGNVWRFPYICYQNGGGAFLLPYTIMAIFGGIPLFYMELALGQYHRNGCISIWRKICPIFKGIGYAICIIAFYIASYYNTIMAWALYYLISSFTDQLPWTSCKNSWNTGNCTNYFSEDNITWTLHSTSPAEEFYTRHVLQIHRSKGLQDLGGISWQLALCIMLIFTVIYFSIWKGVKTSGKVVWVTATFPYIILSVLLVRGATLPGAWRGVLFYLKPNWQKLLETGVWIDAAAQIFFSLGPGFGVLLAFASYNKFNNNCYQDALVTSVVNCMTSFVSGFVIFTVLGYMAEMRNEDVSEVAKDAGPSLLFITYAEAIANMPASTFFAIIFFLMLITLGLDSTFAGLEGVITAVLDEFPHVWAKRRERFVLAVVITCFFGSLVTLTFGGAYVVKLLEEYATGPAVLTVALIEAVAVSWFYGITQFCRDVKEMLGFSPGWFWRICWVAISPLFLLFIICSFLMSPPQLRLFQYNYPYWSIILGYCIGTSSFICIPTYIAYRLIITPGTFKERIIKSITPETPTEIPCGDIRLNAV
T3 sequence (Q01959 whole entry): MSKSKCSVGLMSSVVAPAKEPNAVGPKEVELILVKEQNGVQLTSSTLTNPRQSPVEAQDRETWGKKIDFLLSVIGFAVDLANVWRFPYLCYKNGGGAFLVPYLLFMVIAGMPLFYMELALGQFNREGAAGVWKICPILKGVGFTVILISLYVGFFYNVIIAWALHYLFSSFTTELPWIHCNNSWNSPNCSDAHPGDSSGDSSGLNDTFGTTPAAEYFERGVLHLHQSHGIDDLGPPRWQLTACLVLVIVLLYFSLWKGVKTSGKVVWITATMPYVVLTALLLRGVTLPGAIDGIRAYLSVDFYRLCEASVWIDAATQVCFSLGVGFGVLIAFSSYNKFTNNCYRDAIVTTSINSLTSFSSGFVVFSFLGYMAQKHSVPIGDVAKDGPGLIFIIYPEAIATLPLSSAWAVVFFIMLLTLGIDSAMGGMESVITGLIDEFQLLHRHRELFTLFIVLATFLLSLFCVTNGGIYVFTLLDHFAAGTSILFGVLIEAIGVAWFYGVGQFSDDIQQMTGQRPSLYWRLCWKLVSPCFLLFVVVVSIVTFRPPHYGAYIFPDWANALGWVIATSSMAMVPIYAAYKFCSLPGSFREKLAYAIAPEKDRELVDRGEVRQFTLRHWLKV

Molecule: CC(=O)N1CCC(NC(=O)NC23CC4CC(CC(C4)C2)C3)CC1 [UNC10302683A, AR9281]
- Mean % ([1]; 5-HT2C, mean inhibition): -19.88%
- Inhibition 1 ([1]; 5-HT2C, replicate 1): -9.33%
- Inhibition 2 ([1]; 5-HT2C, replicate 2): -11.78%
- Inhibition 3 ([1]; 5-HT2C, replicate 3): -20.61%
- Inhibition 4 ([1]; 5-HT2C, replicate 4): -37.79%
- Mean % ([2]; M4, mean inhibition): 12.52%
- Inhibition 1 ([2]; M4, replicate 1): 4.48%
- Inhibition 2 ([2]; M4, replicate 2): 16.88%
- Inhibition 3 ([2]; M4, replicate 3): 4.25%
- Inhibition 4 ([2]; M4, replicate 4): 24.46%
- Mean % ([3]; DAT, mean inhibition): 71.25%
- Inhibition 1 ([3]; DAT, replicate 1): 78.11%
- Inhibition 2 ([3]; DAT, replicate 2): 65.9%
- Inhibition 3 ([3]; DAT, replicate 3): 74.33%
- Inhibition 4 ([3]; DAT, replicate 4): 66.66%
- Mean % ([4]; D2, mean inhibition): -5.85%
- Inhibition 1 ([4]; D2, replicate 1): -4.63%
- Inhibition 2 ([4]; D2, replicate 2): -2.98%
- Inhibition 3 ([4]; D2, replicate 3): -11.83%
- Inhibition 4 ([4]; D2, replicate 4): -3.95%
- Mean % ([5]; Alpha2B, mean inhibition): 16.32%
- Inhibition 1 ([5]; Alpha2B, replicate 1): 9.7%
- Inhibition 2 ([5]; Alpha2B, replicate 2): 20.78%
- Inhibition 3 ([5]; Alpha2B, replicate 3): 26.1%
- Inhibition 4 ([5]; Alpha2B, replicate 4): 8.7%
- Mean % ([6]; SERT, mean inhibition): -8.86% and -6.55%
- Inhibition 1 ([6]; SERT, replicate 1): -9.63% and -17.8%
- Inhibition 2 ([6]; SERT, replicate 2): -14.12% and -5.23%
- Inhibition 3 ([6]; SERT, replicate 3): -7.44% and -8.27%
- Inhibition 4 ([6]; SERT, replicate 4): -4.24% and 5.12%
- Mean % ([7]; 5-HT5A, mean inhibition): -4.79% and -3.44%
- Inhibition 1 ([7]; 5-HT5A, replicate 1): 13.38% and 13.31%
- Inhibition 2 ([7]; 5-HT5A, replicate 2): 8.95% and -14.87%
- Inhibition 3 ([7]; 5-HT5A, replicate 3): -49.4% and -7.36%
- Inhibition 4 ([7]; 5-HT5A, replicate 4): 7.91% and -4.85%
- Inhibition 1 ([8]; PBR): 10.97% and 6.98%
- Inhibition 2 ([8]; PBR): -9.87% and 57.06%
- Inhibition 3 ([8]; PBR): -4.95% and 7.94%
- Inhibition 4 ([8]; PBR, replicate 4): -4.51% and 19.02%

Molecule: CCCCNc1ncc2c(-c3ccc(CN4CCN(C)CC4)cc3)cn([C@H]3CC[C@H](O)CC3)c2n1 [UNC2025C, UNC2025]
- Inhibition 1 ([1]; Receptor 5-HT2C, 10 μM): 29.45%
- Inhibition 2 ([1]; Receptor 5-HT2C, 10 μM): 46.13%
- Inhibition 3 ([1]; Receptor 5-HT2C, 10 μM): 31.41%
- Inhibition 4 ([1]; Receptor 5-HT2C, 10 μM): 26.99%
- Mean % ([1]; Receptor 5-HT2C, 10 μM, mean of Inhibition 1-4): 33.5%
- Inhibition 1 ([2]; Receptor M4, 10 μM): 21.02%
- Inhibition 2 ([2]; Receptor M4, 10 μM): 3.79%
- Inhibition 3 ([2]; Receptor M4, 10 μM): -16.19%
- Inhibition 4 ([2]; Receptor M4, 10 μM): 18.49%
- Mean % ([2]; Receptor M4, 10 μM, mean of Inhibition 1-4): 6.78%
- Inhibition 1 ([3]; Receptor DAT, 10 μM): 56.29%
- Inhibition 2 ([3]; Receptor DAT, 10 μM): 47.54%
- Inhibition 3 ([3]; Receptor DAT, 10 μM): 58.45%
- Inhibition 4 ([3]; Receptor DAT, 10 μM): 64.82%
- Mean % ([3]; Receptor DAT, 10 μM, mean of Inhibition 1-4): 56.78%
- Inhibition 1 ([4]; Receptor D2, 10 μM): 11.9%
- Inhibition 2 ([4]; Receptor D2, 10 μM): -4.63%
- Inhibition 3 ([4]; Receptor D2, 10 μM): 2.76%
- Inhibition 4 ([4]; Receptor D2, 10 μM): -1.81%
- Mean % ([4]; Receptor D2, 10 μM, mean of Inhibition 1-4): 2.06%
- Inhibition 1 ([5]; Receptor Alpha2B, 10 μM): 27.09%
- Inhibition 2 ([5]; Receptor Alpha2B, 10 μM): 28.85%
- Inhibition 3 ([5]; Receptor Alpha2B, 10 μM): -0.55%
- Inhibition 4 ([5]; Receptor Alpha2B, 10 μM): 53.34%
- Mean % ([5]; Receptor Alpha2B, 10 μM, mean of Inhibition 1-4): 27.18%
- Inhibition 1 ([6]; Receptor SERT, 10 μM): 82.19% and 71%
- Inhibition 2 ([6]; Receptor SERT, 10 μM): 70.62% and 68.78%
- Inhibition 3 ([6]; Receptor SERT, 10 μM): 68.77% and 67.79%
- Inhibition 4 ([6]; Receptor SERT, 10 μM): 72.64% and 73.98%
- Mean % ([6]; Receptor SERT, 10 μM, mean of Inhibition 1-4): 73.56% and 70.39%
- Inhibition 1 ([7]; Receptor 5-HT5A, 10 μM): 24.59%
- Inhibition 2 ([7]; Receptor 5-HT5A, 10 μM): 14.3%
- Inhibition 3 ([7]; Receptor 5-HT5A, 10 μM): 9.95%
- Inhibition 4 ([7]; Receptor 5-HT5A, 10 μM): 29.74%
- Mean % ([7]; Receptor 5-HT5A, 10 μM, mean of Inhibition 1-4): 19.65%
- Inhibition 4 ([8]; Receptor PBR, 10 μM): 12.81% and 23.25%

Molecule: MDL 28170 [UNC10302675A]
- Mean % ([1]; 5-HT2C, mean inhibition): -9.69%
- Inhibition 1 ([1]; 5-HT2C, replicate 1): -16.2%
- Inhibition 2 ([1]; 5-HT2C, replicate 2): -15.21%
- Inhibition 3 ([1]; 5-HT2C, replicate 3): 9.82%
- Inhibition 4 ([1]; 5-HT2C, replicate 4): -17.18%
- Mean % ([2]; M4, mean inhibition): 7.01%
- Inhibition 1 ([2]; M4, replicate 1): 5.86%
- Inhibition 2 ([2]; M4, replicate 2): -14.36%
- Inhibition 3 ([2]; M4, replicate 3): 13.67%
- Inhibition 4 ([2]; M4, replicate 4): 22.85%
- Mean % ([3]; DAT, mean inhibition): 35.54%
- Inhibition 1 ([3]; DAT, replicate 1): 41.81%
- Inhibition 2 ([3]; DAT, replicate 2): 27.44%
- Inhibition 3 ([3]; DAT, replicate 3): 32.41%
- Inhibition 4 ([3]; DAT, replicate 4): 40.51%
- Mean % ([4]; D2, mean inhibition): -18.47%
- Inhibition 1 ([4]; D2, replicate 1): -14.97%
- Inhibition 2 ([4]; D2, replicate 2): -19.19%
- Inhibition 3 ([4]; D2, replicate 3): -16%
- Inhibition 4 ([4]; D2, replicate 4): -23.71%
- Mean % ([5]; Alpha2B, mean inhibition): 5.87%
- Inhibition 1 ([5]; Alpha2B, replicate 1): 22.44%
- Inhibition 2 ([5]; Alpha2B, replicate 2): -15.29%
- Inhibition 3 ([5]; Alpha2B, replicate 3): -0.28%
- Inhibition 4 ([5]; Alpha2B, replicate 4): 16.62%
- Mean % ([6]; SERT, mean inhibition): -4.02% and -0.38%
- Inhibition 1 ([6]; SERT, replicate 1): 19.12% and 14.24%
- Inhibition 2 ([6]; SERT, replicate 2): -10.98% and 6.75%
- Inhibition 3 ([6]; SERT, replicate 3): -20.47% and -17.68%
- Inhibition 4 ([6]; SERT, replicate 4): -3.73% and -4.82%
- Mean % ([7]; 5-HT5A, mean inhibition): -1.67%
- Inhibition 1 ([7]; 5-HT5A, replicate 1): -0.61%
- Inhibition 2 ([7]; 5-HT5A, replicate 2): -2.73%
- Inhibition 3 ([7]; 5-HT5A, replicate 3): -12.06%
- Inhibition 4 ([7]; 5-HT5A, replicate 4): 8.72%
- Mean % ([8]; PBR, mean inhibition): 14.47% and 16.31%
- Inhibition 1 ([8]; PBR): 31.01% and 31.3%
- Inhibition 2 ([8]; PBR): 3.06% and 12.16%
- Inhibition 3 ([8]; PBR): 7.19% and 13.84%
- Inhibition 4 ([8]; PBR, replicate 4): 16.6% and 7.94%
